Assay results published in ChEMBL document CHEMBL3045696, “CsFCelite catalyzed facile N-alkylation of 2(3H)-benzoxazolones and antimicrobial properties of 2-substituted benzoxazole and 3-substituted-2(3H)-benzoxazolone derivatives” (2011).
In brackets after ≈: the same amount, converted by molar mass. Activity calls are given as the source filed them. The rule behind the calls is not given here.

Key:
Type in all cases: functional
[1] = system: Rhizopus arrhizus; test: Antimicrobial activity against Rhizopus oryzae MTCC 262 at 50 ug after 48 hr by agar well diffusion method; conditions: MTCC 262, 48 h, read-out: IZ
[2] = system: Saccharomyces cerevisiae; test: Antimicrobial activity against Saccharomyces cerevisiae MTCC 36 at 50 ug after 48 hr by agar well diffusion method; conditions: MTCC 36, 48 h, read-out: IZ
[3] = system: Aspergillus niger; test: Antimicrobial activity against Aspergillus niger MTCC 282 at 50 ug after 48 hr by agar well diffusion method; conditions: MTCC 282, 48 h, read-out: IZ
[4] = system: Candida albicans; test: Antimicrobial activity against Candida albicans MTCC 227 at 50 ug after 48 hr by agar well diffusion method; conditions: MTCC 227, 48 h, read-out: IZ
[5] = system: Pseudomonas aeruginosa; test: Antimicrobial activity against Pseudomonas aeruginosa MTCC 741 by broth dilution method
[6] = system: Rhizopus arrhizus; test: Antimicrobial activity against Rhizopus oryzae MTCC 262 at 150 ug after 48 hr by agar well diffusion method; conditions: for zone of inhibition at 150 µg/disc: MTCC 262, 48 h, read-out: IZ
[7] = system: Rhizopus arrhizus; test: Antimicrobial activity against Rhizopus oryzae MTCC 262 at 100 ug after 48 hr by agar well diffusion method
[8] = system: Escherichia coli; test: Antimicrobial activity against Escherichia coli MTCC 443 by broth dilution method
[9] = system: Saccharomyces cerevisiae; test: Antimicrobial activity against Saccharomyces cerevisiae MTCC 36 at 100 ug after 48 hr by agar well diffusion method; conditions: for zone of inhibition at 100 µg/disc: MTCC 36, 48 h, read-out: IZ
[10] = system: Candida albicans; test: Antimicrobial activity against Candida albicans MTCC 227 at 150 ug after 48 hr by agar well diffusion method; conditions: for zone of inhibition at 150 µg/disc: MTCC 227, 48 h, read-out: IZ
[11] = system: Staphylococcus epidermidis; test: Antimicrobial activity against Staphylococcus epidermidis by broth dilution method
[12] = system: Aspergillus niger; test: Antimicrobial activity against Aspergillus niger MTCC 282 at 150 ug after 48 hr by agar well diffusion method; conditions: for zone of inhibition at 150 µg/disc: MTCC 282, 48 h, read-out: IZ
[13] = system: Staphylococcus aureus; test: Antimicrobial activity against Staphylococcus aureus MTCC 96 by broth dilution method
[14] = system: Klebsiella pneumoniae; test: Antimicrobial activity against Klebsiella pneumoniae MTCC 618 by broth dilution method
[15] = system: Bacillus subtilis; test: Antimicrobial activity against Bacillus subtilis MTCC 441 by broth dilution method
[16] = system: Aspergillus niger; test: Antimicrobial activity against Aspergillus niger MTCC 282 at 100 ug after 48 hr by agar well diffusion method; conditions: for zone of inhibition at 100 µg/disc: MTCC 282, 48 h, read-out: IZ
[17] = system: Candida albicans; test: Antimicrobial activity against Candida albicans MTCC 227 at 100 ug after 48 hr by agar well diffusion method
[18] = system: Saccharomyces cerevisiae; test: Antimicrobial activity against Saccharomyces cerevisiae MTCC 36 at 150 ug after 48 hr by agar well diffusion method; conditions: for zone of inhibition at 150 µg/disc: MTCC 36, 48 h, read-out: IZ

SMILES	MIC [5]	MIC [8]	zone of inhibition at 150 µg/disc [10]	MIC [11]	zone of inhibition at 150 µg/disc [12]	MIC [13]	MIC [14]	MIC [15]	Activity [6]	Activity [7]	Activity [9]	Activity [12]	Activity [16]	Activity [17]	Activity [18]	other results
C[C@@H]1[C@H](O)[C@@H](C)/C=C/C=C/C=C/C=C/C=C/C=C/C=C/[C@H](O[C@@H]2O[C@H](C)[C@@H](O)[C@H](N)[C@@H]2O)C[C@@H]2O[C@](O)(C[C@@H](O)C[C@@H](O)[C@H](O)CC[C@@H](O)C[C@@H](O)CC(=O)O[C@H]1C)C[C@H](O)[C@H]2C(=O)O [AMPHOTERICIN B]	–	–	–	–	–	–	–	–	–	–	–	–	–	–	–	zone of inhibition at 50 µg/disc [1]: 24 mm; zone of inhibition at 50 µg/disc [2]: 22 mm; zone of inhibition at 50 µg/disc [3]: 25 mm; zone of inhibition at 50 µg/disc [4]: 23.5 mm
O=c1oc2ccc(Cl)cc2n1CCCCl	150 µg/mL (≈ 610 µM)	150 µg/mL (≈ 610 µM)	19 mm	150 µg/mL (≈ 610 µM)	17 mm	150 µg/mL (≈ 610 µM)	150 µg/mL (≈ 610 µM)	150 µg/mL (≈ 610 µM)	–	–	–	–	–	–	–	zone of inhibition at 150 µg/disc [6]: 15 mm; zone of inhibition at 100 µg/disc ([7]; MTCC 262, 48 h, read-out: IZ): 11 mm; zone of inhibition at 100 µg/disc [9]: 12 mm; zone of inhibition at 100 µg/disc [16]: 13 mm; zone of inhibition at 100 µg/disc ([17]; MTCC 227, 48 h, read-out: IZ): 14 mm; zone of inhibition at 150 µg/disc [18]: 15 mm
O=c1oc2ccc(Cl)cc2n1CCCN1CCN(c2cccc(Cl)c2)CC1	150 µg/mL (≈ 369 µM)	150 µg/mL (≈ 369 µM)	–	150 µg/mL (≈ 369 µM)	–	150 µg/mL (≈ 369 µM)	150 µg/mL (≈ 369 µM)	150 µg/mL (≈ 369 µM)	inactive	inactive	inactive	inactive	inactive	inactive	inactive	Activity [10]: inactive
c1ccc(CN2CCN(c3nc4ccccc4o3)CC2)cc1	75 µg/mL (≈ 256 µM)	150 µg/mL (≈ 511 µM)	9 mm	75 µg/mL (≈ 256 µM)	9 mm	150 µg/mL (≈ 511 µM)	150 µg/mL (≈ 511 µM)	150 µg/mL (≈ 511 µM)	–	inactive	–	–	inactive	inactive	–	zone of inhibition at 150 µg/disc [6]: 9 mm; zone of inhibition at 100 µg/disc [9]: 12 mm; zone of inhibition at 150 µg/disc [18]: 10 mm
C=CCn1c(=O)oc2ccc(Cl)cc21	75 µg/mL (≈ 358 µM)	150 µg/mL (≈ 716 µM)	8 mm	150 µg/mL (≈ 716 µM)	10 mm	150 µg/mL (≈ 716 µM)	37.5 µg/mL (≈ 179 µM)	150 µg/mL (≈ 716 µM)	inactive	inactive	inactive	–	–	inactive	inactive	zone of inhibition at 100 µg/disc [16]: 8 mm
c1ccc(N2CCN(c3nc4ccccc4o3)CC2)cc1	75 µg/mL (≈ 268 µM)	75 µg/mL (≈ 268 µM)	9 mm	150 µg/mL (≈ 537 µM)	–	150 µg/mL (≈ 537 µM)	150 µg/mL (≈ 537 µM)	150 µg/mL (≈ 537 µM)	inactive	inactive	inactive	inactive	inactive	inactive	inactive	–
CC1CN(c2nc3ccccc3o2)CCN1 (stereo not drawn)	150 µg/mL (≈ 690 µM)	75 µg/mL (≈ 345 µM)	–	150 µg/mL (≈ 690 µM)	–	150 µg/mL (≈ 690 µM)	150 µg/mL (≈ 690 µM)	150 µg/mL (≈ 690 µM)	inactive	inactive	inactive	inactive	inactive	inactive	inactive	Activity [10]: inactive
